Measured values: patent publication US10626058B2, “Urea ammonium sulphate-based composition and method for the manufacture thereof” (YARA INTERNATIONAL ASA, priority 2015, dated 2020)
Where two headings read alike, the source gives them in different places.

Format: physicochemical
Conditions: for effect of added alkaline compound on stability of nBTPT on UAS: UAS+500 ppm nBTPT powder+2350 ppm rapeseed oil, 12 days open to air storage at 30° C. in an oven; for half-life time for nBTPT: stored in bags at room temperature (20-25° C.)
Method: For lab scale experiments, 1.2 kg of solid fertilizer material was added to a lab scale drum. In a next step, the nBTPT material was slowly added. A residence time of 10 minutes was applied and the rotating speed of the drum was consequently the same in each experiment. In case a moisture repellent coating was added, a nebulizer was used and depending on the order of addition, the moisture repellent coating was added before or after addition of the nBTPT material. Before use, the moisture repellent coating was preheated to 80° C. Larger scale experiments with amounts up to 40 kg of fertilizer material were performed in a concrete mixer.
The samples were stored under several conditions, dependent on the type of samples: • 20° C. closed plastic container with head space (Climate chamber, 80% relative humidity) • Bagged at room temperature (20-25° C.) or in nissenhut • Open to air in nissenhut • Cylinder test in nissenhut • Open pile in nissenhut
For some samples, an accelerated stability test was done storing these samples at elevated temperatures: • Oven of 30° C. closed plastic container • Oven of 30° C. open to air • 30° C./60% RH open to air • 70° C. closed plastic container
Typically, a day/night cycle is generated in the nissenhut, with temperature fluctuations between 0 to 42° C. and fluctuations of relative humidity between 20 and 90%, which can be compared with real life storage in silos.
HPLC analysis of nBTPT is done as described in the procedure CEN 15688-2007.

O=C([O-])[O-].[Ca+2] [calcium carbonate]
effect of added alkaline compound on stability of nBTPT on UAS: stabilizing effect

[O]=[Ca] [calcium oxide]
effect of added calcium oxide on stability of nBTPT on UAS (500-2350 ppm calcium oxide, UAS+500 ppm nBTPT powder, 8 days open to air at nissenhut (16-42° C./27-77% relative humidity)): large stabilizing effect
effect of added alkaline compound on stability of nBTPT on UAS: stabilizing effect

CCCCNP(N)(N)=S [nBTPT, N-(n-butyl) thiophosphoric triamide]
effect of moisture repellent coating and of solid particulate form on stability of nBTPT on UAS (7 days in closed plastic containers with head space at 20° C./80% relative humidity, FIG. 10): beneficial effect
effect of calcium oxide addition and of solid particulate form on stability of nBTPT on UAS (16 days in bags at nissenhut (16-42° C./27-77% relative humidity), FIG. 8): beneficial effect
effect of calcium oxide addition and of bagged storage on stability of nBTPT on UAS (16 days in nissenhut (16-42° C./27-77% relative humidity), FIG. 9): beneficial effect
effect of calcium oxide, solid particulate form, moisture repellent coating and bagged storage on stability of nBTPT on UAS (16 days in nissenhut (16-42° C./27-77% relative humidity), FIG. 12): beneficial effect
effect of solid particulate form and of bagged storage on stability of nBTPT on UAS (28 days at room temperature (20-25° C.), FIG. 11): beneficial effect
effect of bagged versus open to air storage on stability of nBTPT on UAS (solid nBTPT (500 ppm), 28 days at room temperature (20-25° C.)): beneficial effect
half-life time for nBTPT (solid particulate form on UAS plus alkaline or alkaline-forming compound and moisture repellent coating): 6-12 months
half-life time for nBTPT (urease inhibitor in liquid form on UAS): only a few days
half-life time for nBTPT (urease inhibitor in solid particulate form on UAS): up to 4 months

[O]=[Zn] [zinc oxide]
effect of added alkaline compound on stability of nBTPT on UAS: best effect
